The values below come from ChEMBL document CHEMBL1135564, “Diaryl-dialkyl-substituted pyrazoles: regioselective synthesis and binding affinity for the estrogen receptor” (Bioorg Med Chem Lett, 2002).

Assay [1] concerns the target Estrogen receptor (Homo sapiens) (UniProt Q92731+P03372). Put plainly: Selectivity ratio as relative binding affinity for estrogen receptor alpha and beta. Type of assay: protein assay.
In assay [2] the target is Estrogen receptor beta (Homo sapiens) (UniProt Q92731). Put plainly: Relative binding affinity (RBA) for human Estrogen receptor beta compared to estradiol.
The target in assay [3] is T1, Estrogen receptor (Homo sapiens) (UniProt P03372).
T1 sequence (whole entry): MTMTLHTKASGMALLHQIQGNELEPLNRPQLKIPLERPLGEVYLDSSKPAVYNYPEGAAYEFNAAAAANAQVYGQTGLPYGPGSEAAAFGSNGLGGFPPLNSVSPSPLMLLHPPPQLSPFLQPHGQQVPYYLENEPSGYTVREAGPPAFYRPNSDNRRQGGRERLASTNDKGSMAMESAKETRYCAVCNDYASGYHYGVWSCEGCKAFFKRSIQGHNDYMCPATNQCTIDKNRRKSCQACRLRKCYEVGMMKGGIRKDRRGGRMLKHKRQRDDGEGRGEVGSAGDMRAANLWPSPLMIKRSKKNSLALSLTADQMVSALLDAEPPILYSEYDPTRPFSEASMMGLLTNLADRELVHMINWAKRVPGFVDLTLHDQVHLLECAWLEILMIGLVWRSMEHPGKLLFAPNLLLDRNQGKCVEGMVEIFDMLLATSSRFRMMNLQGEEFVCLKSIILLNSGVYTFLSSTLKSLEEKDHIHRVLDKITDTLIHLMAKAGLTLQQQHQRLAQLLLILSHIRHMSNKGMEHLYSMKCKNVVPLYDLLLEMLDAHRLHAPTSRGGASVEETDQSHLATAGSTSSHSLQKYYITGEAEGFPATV
Put plainly: Relative binding affinity (RBA) for human Estrogen receptor alpha compared to estradiol.

Estrogen receptor beta (Homo sapiens), sequence (Q92731 whole entry): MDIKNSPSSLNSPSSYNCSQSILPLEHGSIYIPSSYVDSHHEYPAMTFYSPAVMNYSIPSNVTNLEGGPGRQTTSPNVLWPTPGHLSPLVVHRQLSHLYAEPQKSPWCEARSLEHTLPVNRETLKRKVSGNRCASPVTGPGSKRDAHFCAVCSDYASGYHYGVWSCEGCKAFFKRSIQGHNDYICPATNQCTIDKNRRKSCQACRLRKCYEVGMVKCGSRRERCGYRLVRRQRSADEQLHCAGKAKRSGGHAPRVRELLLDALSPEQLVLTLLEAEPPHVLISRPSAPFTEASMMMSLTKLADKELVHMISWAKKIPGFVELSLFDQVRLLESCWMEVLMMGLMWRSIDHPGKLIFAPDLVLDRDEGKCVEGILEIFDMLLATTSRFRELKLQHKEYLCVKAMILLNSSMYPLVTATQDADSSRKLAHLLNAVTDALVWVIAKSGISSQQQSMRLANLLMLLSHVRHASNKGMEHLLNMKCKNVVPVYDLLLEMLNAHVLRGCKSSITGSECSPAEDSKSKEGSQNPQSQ

As to `CCCc1c(-c2ccc(O)cc2)nn(-c2ccc(O)cc2)c1C1CCCCC1`, the Ratio in assay [1] was 9.4. The Affinity in assay [2] was 0.11; in assay [3], 1.1.
For the molecule `CCCc1c(-c2ccc(O)cc2)nn(C2CCCCC2)c1-c1ccc(O)cc1`, the Ratio in assay [1] came out at 2.3. In addition, the Affinity was determined as 13 in assay [2] and 30 in assay [3].
In the case of `CCc1c(-c2ccc(O)cc2)nn(-c2ccc(O)cc2)c1C1CCCCC1`, the Ratio in assay [1] is 4.2. Also, the Affinity in assay [2] worked out at 0.14; in assay [3] it was 0.59.
For `CCc1c(-c2ccc(O)cc2)nn(-c2ccc(O)cc2)c1C1CCCC1`, the Ratio in assay [1] is 8.9. Also, the Affinity in assay [2] came out at 0.23; in assay [3] it was 2.1.
Take `CCCc1c(-c2ccc(O)cc2)nn(-c2ccc(O)cc2)c1C1CCCC1`: in assay [1], the Ratio came to 6. The figures for the Affinity in assay [2] and in assay [3] were 0.6 and 3.6, respectively.
The corresponding values for `CCCc1c(-c2ccc(O)cc2)nn(-c2ccc(O)cc2)c1-c1ccc(O)cc1` are 410, 0.12 and 49.
For `Oc1ccc(-c2nn(-c3ccc(O)cc3)c3c2CCCC3)cc1`, in assay [1], the Ratio is 13. Besides, the Affinity in assay [2] turned out to be 0.042; in assay [3], 0.56.
For `CCCc1c(-c2ccc(O)cc2)nn(C2CCCC2)c1-c1ccc(O)cc1`, the Ratio in assay [1] was determined as 1. The Affinity in assay [2] was determined as 71; in assay [3], 74.
In the case of `Oc1ccc(-c2nn(-c3ccc(O)cc3)c3c2CCCCC3)cc1`, the Ratio in assay [1] worked out at 4. Further, the values for the Affinity in assay [2] and in assay [3] were 0.047 and 0.19, respectively.
